Source: publication PMC10470313, “Developing a peptide to disrupt cohesin head domain interactions” (iScience, 2023)
Where no end group is shown, it is not given here.

Molecular target: T1, Smc3 head domain (Saccharomyces cerevisiae, UniProt P47037)
T1 construct: C′ terminal (amino acids 1001-1230); linker […]; made in house; host or cells: E. coli BL21
T1 sequence (P47037 with tags, fused parts or gaps): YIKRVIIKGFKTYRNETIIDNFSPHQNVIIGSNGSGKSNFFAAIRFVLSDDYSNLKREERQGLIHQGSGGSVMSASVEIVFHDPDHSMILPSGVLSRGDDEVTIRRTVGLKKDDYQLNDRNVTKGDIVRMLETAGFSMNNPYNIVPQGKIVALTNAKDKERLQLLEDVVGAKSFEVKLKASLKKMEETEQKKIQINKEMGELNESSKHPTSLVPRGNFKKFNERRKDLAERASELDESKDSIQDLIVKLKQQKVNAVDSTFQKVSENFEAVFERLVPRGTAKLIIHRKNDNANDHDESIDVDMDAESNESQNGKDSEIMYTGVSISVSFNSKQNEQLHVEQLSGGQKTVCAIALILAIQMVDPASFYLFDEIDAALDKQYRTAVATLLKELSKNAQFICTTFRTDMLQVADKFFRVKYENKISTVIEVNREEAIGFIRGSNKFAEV
Assay: Field-effect biosensing (FEB Agile R100) binding of peptide to Smc3 head domain
Settings: 500 nM peptide immobilized on graphene chip, Hill fit or kon/koff
Protocol: Accordingly, we explored the ability of CIP3 to bind Smc3 in-vitro. We synthesized CIP3-TAT and purified it (Figures S2A and S2B. Purification of CIP3-TAT and Smc3 head domain, related to Figure 3), and the kinetic binding of the peptide to a purified Smc3 head domain (Figures S2C and S2D. Purification of CIP3-TAT and Smc3 head domain, related to Figure 3) was explored by FEB Agile R100 (Figures 3C and 3D). The binding kinetics is determined by measuring the current of the chip that is changed when the analyzed molecules form a complex. The peptide was immobilized on the sensor chip, and the analyte, purified Smc3 head domain, was applied in solution to the chip. The changes in the current were monitored as increasing concentrations of analyte were applied to the chip. […]
The binding kinetics of cohesin-inhibiting peptide 3 (CIP3) to Smc3 were measured by field-effect biosensing (FEB) Agile R100 label-free binding assay (Cardea), following their standard protocol, and as we have done previously,.[65]^,[66]^,[67] […] Next, PBS was aspirated, and the changes in the baseline current were monitored in real-time, using 20 μM, 50 μM, 100 μM, 200 μM, 500 μΜ, 1000 μM, 1500 μM, 2000 μM, and 4000 μM of purified Smc3 head domain. Kd values were calculated using DataLINE 2.0 software by applying either a Hill equation fit or using kon and koff values at a single concentration. […]

Sequence KRFKDMEYLSGGEKTGGYGRKKRRQRRR [CIP3-TAT] has a Kd (with ATP (10 mM), Smc3 incubated with ATP before measuring, Smc3 head domain 20-4000 μM (0.02–4 mM)) of 544.2 ± 0.06 nM and a Kd (without ATP, Smc3 head domain 20-4000 μM (0.02–4 mM) in PBS) of 53.86 ± 0.03 nM.
